Results taken from ChEMBL document CHEMBL1157938, “Cytotoxicity and inhibition of DNA topoisomerase I of polyhydroxylated triterpenoids and triterpenoid glycosides” (Bioorg Med Chem Lett, 2010).
Activity calls are given as the source filed them. No cut-off for these calls is given here.

How the values were obtained:
HL-60 = assay: Cytotoxicity against human HL60 cells at 25 uM after 48 hrs by WST8 assay; format: functional, cell-based
DNA topoisomerase 1 = biological target: T1, DNA topoisomerase 1 (Homo sapiens, UniProt P11387); assay: Inhibition of human DNA topoisomerase 1-mediated relaxation of supercoiled DNA by gel electrophoresis
T1 sequence (P11387 whole entry): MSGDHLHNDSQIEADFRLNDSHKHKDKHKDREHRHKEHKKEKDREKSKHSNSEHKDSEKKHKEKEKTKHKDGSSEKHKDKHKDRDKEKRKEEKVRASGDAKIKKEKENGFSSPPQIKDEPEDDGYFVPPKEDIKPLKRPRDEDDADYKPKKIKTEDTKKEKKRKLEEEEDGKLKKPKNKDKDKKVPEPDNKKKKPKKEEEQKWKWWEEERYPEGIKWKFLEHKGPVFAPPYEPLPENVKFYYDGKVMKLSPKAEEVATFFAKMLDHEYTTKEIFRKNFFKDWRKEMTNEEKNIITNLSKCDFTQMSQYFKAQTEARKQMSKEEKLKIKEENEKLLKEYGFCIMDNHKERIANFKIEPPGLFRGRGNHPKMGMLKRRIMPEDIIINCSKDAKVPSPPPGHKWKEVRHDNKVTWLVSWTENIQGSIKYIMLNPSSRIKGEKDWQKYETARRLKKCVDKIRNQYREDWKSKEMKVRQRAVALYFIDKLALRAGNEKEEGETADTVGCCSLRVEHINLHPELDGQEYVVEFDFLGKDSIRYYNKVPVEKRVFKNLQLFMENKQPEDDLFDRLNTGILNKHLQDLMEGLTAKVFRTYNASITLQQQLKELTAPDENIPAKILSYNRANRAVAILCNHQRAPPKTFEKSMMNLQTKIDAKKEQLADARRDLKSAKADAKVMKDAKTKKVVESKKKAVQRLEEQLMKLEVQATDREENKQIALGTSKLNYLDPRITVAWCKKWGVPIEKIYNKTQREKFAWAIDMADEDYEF

[1] = biological target: DNA topoisomerase 2-alpha (Homo sapiens, UniProt P11388); assay: Inhibition of human DNA topoisomerase 2-mediated relaxation of supercoiled DNA by gel electrophoresis
DNA topoisomerase 2-alpha, sequence (P11388 whole entry): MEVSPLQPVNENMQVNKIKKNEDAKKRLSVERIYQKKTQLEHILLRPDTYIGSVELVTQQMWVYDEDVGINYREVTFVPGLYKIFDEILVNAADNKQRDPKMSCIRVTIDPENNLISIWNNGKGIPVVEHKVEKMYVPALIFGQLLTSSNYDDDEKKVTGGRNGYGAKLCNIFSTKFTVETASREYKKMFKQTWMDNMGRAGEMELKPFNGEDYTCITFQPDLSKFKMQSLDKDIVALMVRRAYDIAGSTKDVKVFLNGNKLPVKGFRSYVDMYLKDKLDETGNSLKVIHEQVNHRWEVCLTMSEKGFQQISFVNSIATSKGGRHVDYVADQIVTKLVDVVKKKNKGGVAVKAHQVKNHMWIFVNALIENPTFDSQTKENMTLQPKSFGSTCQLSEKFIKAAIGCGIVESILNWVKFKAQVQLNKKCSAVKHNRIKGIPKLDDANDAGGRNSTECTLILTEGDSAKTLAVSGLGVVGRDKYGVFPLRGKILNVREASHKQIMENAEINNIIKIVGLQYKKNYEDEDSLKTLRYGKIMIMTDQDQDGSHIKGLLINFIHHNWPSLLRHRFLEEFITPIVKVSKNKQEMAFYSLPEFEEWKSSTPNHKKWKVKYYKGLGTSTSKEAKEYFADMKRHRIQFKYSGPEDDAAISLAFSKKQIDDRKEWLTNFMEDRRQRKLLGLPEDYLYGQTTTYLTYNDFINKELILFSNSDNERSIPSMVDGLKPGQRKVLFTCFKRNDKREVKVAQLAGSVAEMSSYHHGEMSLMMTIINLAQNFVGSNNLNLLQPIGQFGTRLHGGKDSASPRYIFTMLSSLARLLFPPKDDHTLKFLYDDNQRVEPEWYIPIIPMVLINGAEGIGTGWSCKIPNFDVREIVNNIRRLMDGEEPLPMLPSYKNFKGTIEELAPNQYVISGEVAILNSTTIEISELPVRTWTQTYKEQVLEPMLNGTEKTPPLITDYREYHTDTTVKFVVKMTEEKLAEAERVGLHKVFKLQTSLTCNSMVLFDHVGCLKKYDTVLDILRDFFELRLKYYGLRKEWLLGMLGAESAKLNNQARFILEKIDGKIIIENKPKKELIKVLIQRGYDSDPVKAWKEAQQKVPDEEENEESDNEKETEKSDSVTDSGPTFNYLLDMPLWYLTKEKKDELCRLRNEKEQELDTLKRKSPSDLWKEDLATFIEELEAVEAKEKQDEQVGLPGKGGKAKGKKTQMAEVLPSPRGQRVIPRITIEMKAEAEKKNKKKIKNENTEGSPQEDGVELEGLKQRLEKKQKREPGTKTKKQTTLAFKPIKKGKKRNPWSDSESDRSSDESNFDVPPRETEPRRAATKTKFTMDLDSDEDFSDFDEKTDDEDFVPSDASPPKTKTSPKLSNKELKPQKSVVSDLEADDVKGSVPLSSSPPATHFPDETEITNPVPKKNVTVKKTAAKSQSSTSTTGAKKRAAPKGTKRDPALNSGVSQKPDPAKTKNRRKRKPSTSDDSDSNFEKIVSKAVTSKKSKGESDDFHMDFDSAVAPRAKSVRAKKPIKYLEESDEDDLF

PC-3 = assay: Cytotoxicity against human PC3 cells at 25 uM after 48 hrs by WST8 assay; format: functional, cell-based
A549 = assay: Cytotoxicity against human A549 cells at 25 uM after 48 hrs by WST8 assay; format: functional, cell-based
PANC-1 = assay: Cytotoxicity against human PANC1 cells at 25 uM after 48 hrs by WST8 assay; format: functional, cell-based

## CC(C)=CCC[C@](C)(O)[C@H]1CC[C@]2(C)[C@@H]1[C@H](O)C[C@@H]1[C@@]3(C)CC[C@H](O)C(C)(C)[C@@H]3[C@@H](O[C@@H]3O[C@H](CO)[C@@H](O)[C@H](O)[C@H]3O[C@H]3O[C@@H](C)[C@H](O)[C@@H](O)[C@H]3O)C[C@]12C
HL-60
  growth inhibition (GI): inactive
DNA topoisomerase 1
  IC50: > 250 µM
[1]
  IC50: > 250 µM
PC-3
  growth inhibition (GI): inactive
A549
  growth inhibition (GI): inactive
PANC-1
  growth inhibition (GI): inactive

## CC(C)=CCC[C@@](C)(O)[C@H]1CC[C@]2(C)[C@@H]1[C@H](O)C[C@@H]1[C@@]3(C)CC[C@H](O)C(C)(C)[C@@H]3[C@@H](O[C@@H]3O[C@H](CO)[C@@H](O)[C@H](O)[C@H]3O[C@H]3O[C@@H](C)[C@H](O)[C@@H](O)[C@H]3O)C[C@]12C
HL-60
  growth inhibition (GI): inactive
DNA topoisomerase 1
  IC50: > 250 µM
[1]
  IC50: > 250 µM
PC-3
  growth inhibition (GI): inactive
A549
  growth inhibition (GI): inactive
PANC-1
  growth inhibition (GI): inactive

## CC(C)=CCC[C@@](C)(O)[C@H]1CC[C@]2(C)[C@@H]1[C@H](O)C[C@@H]1[C@@]3(C)CC[C@H](O[C@@H]4O[C@H](CO)[C@@H](O)[C@H](O)[C@H]4O[C@@H]4O[C@H](CO)[C@@H](O)[C@H](O)[C@H]4O)C(C)(C)[C@@H]3CC[C@]12C
HL-60
  growth inhibition (GI): inactive
DNA topoisomerase 1
  IC50: > 250 µM
[1]
  IC50: > 250 µM
PC-3
  growth inhibition (GI): inactive
A549
  growth inhibition (GI): inactive
PANC-1
  growth inhibition (GI): inactive

## C[C@H]1[C@H](C)CC[C@]2(C(=O)O[C@@H]3O[C@H](CO)[C@@H](O)[C@H](O)[C@H]3O)CC[C@]3(C(=O)O)C(=CC[C@@H]4[C@@]5(C)CC[C@H](O)C(C)(C)[C@@H]5CC[C@]43C)[C@H]12
HL-60
  growth inhibition (GI): inactive
DNA topoisomerase 1
  IC50: > 250 µM
[1]
  IC50: > 250 µM
PC-3
  growth inhibition (GI): inactive
A549
  growth inhibition (GI): inactive
PANC-1
  growth inhibition (GI): inactive

## C[C@H]1[C@H](C)CC[C@]2(C(=O)O[C@@H]3O[C@H](CO)[C@@H](O)[C@H](O)[C@H]3O)CC[C@]3(C(=O)O)C(=CC[C@@H]4[C@@]5(C)CC[C@H](O[C@H]6O[C@@H](C)[C@H](O)[C@@H](O)[C@@H]6O)C(C)(C)[C@@H]5CC[C@]43C)[C@H]12
HL-60
  growth inhibition (GI): inactive
DNA topoisomerase 1
  IC50: > 250 µM
[1]
  IC50: > 250 µM
PC-3
  growth inhibition (GI): inactive
A549
  growth inhibition (GI): inactive
PANC-1
  growth inhibition (GI): inactive

## C[C@H]1[C@H](C)CC[C@]2(C(=O)O)CC[C@]3(C(=O)O)C(=CC[C@@H]4[C@@]5(C)CC[C@H](O[C@H]6O[C@@H](C)[C@H](O)[C@@H](O)[C@H]6O)C(C)(C)[C@@H]5CC[C@]43C)[C@H]12
HL-60
  growth inhibition (GI): inactive
DNA topoisomerase 1
  IC50: > 250 µM
[1]
  IC50: > 250 µM
PC-3
  growth inhibition (GI): inactive
A549
  growth inhibition (GI): inactive
PANC-1
  growth inhibition (GI): inactive

## C[C@H]1[C@H](C)CC[C@]2(C(=O)O[C@@H]3O[C@H](CO)[C@@H](O)[C@H](O)[C@H]3O)CC[C@]3(C(=O)O)C(=CC[C@@H]4[C@@]5(C)CC[C@H](O[C@@H]6O[C@H](CO)[C@@H](O[C@H]7O[C@@H](C)[C@H](O)[C@@H](O)[C@H]7O)[C@H](O)[C@H]6O)C(C)(C)[C@@H]5CC[C@]43C)[C@H]12
HL-60
  growth inhibition (GI): inactive
DNA topoisomerase 1
  IC50: > 250 µM
[1]
  IC50: > 250 µM
PC-3
  growth inhibition (GI): inactive
A549
  growth inhibition (GI): inactive
PANC-1
  growth inhibition (GI): inactive

## C[C@H]1[C@H](C)CC[C@]2(C(=O)O[C@@H]3O[C@H](CO)[C@@H](O)[C@H](O)[C@H]3O[C@@H]3OC[C@H](O)[C@H](O)[C@H]3O)CC[C@]3(C(=O)O)C(=CC[C@@H]4[C@@]5(C)CC[C@H](O[C@@H]6O[C@H](CO)[C@@H](O)[C@H](O)[C@H]6O)C(C)(C)[C@@H]5CC[C@]43C)[C@H]12
HL-60
  growth inhibition (GI): inactive
DNA topoisomerase 1
  IC50: > 250 µM
[1]
  IC50: > 250 µM
PC-3
  growth inhibition (GI): inactive
A549
  growth inhibition (GI): inactive
PANC-1
  growth inhibition (GI): inactive

## CC(C)=CC/C=C(/C)[C@H]1CC[C@]2(C)[C@@H]1[C@H](O)C[C@@H]1[C@@]3(C)CC[C@H](O)C(C)(C)[C@@H]3[C@@H](O)C[C@]12C
HL-60
  growth inhibition (GI): inactive
DNA topoisomerase 1
  IC50: > 250 µM
[1]
  IC50: > 250 µM
PC-3
  growth inhibition (GI): inactive
A549
  growth inhibition (GI): inactive
PANC-1
  growth inhibition (GI): inactive

## C[C@H]1[C@H](C)CC[C@]2(C(=O)O)CC[C@]3(C(=O)O)C(=CC[C@@H]4[C@@]5(C)C[C@@H](O)[C@H](O)C(C)(C)[C@@H]5CC[C@]43C)[C@H]12
HL-60
  growth inhibition (GI): inactive
DNA topoisomerase 1
  IC50: > 250 µM
[1]
  IC50: > 250 µM
PC-3
  growth inhibition (GI): inactive
A549
  growth inhibition (GI): inactive
PANC-1
  growth inhibition (GI): inactive

## C=C(C)[C@@H]1CC[C@]2(C)CC[C@]3(C)[C@@H](CC[C@@H]4[C@@]5(C)CC[C@H](OC(C)=O)C(C)(C)[C@@H]5CC[C@]43C)[C@H]12
HL-60
  growth inhibition (GI): inactive
[1]
  IC50: > 250 µM
PC-3
  growth inhibition (GI): inactive
A549
  growth inhibition (GI): inactive
PANC-1
  growth inhibition (GI): inactive

## CC(C)=CCC[C@](C)(O)[C@H]1CC[C@]2(C)[C@@H]1[C@H](O)C[C@@H]1[C@@]3(C)CC[C@H](O[C@@H]4O[C@H](CO)[C@@H](O)[C@H](O)[C@H]4O[C@@H]4O[C@H](CO)[C@@H](O)[C@H](O)[C@H]4O)C(C)(C)[C@@H]3CC[C@]12C
HL-60
  growth inhibition (GI): inactive
DNA topoisomerase 1
  IC50: > 250 µM
[1]
  IC50: > 250 µM
PC-3
  growth inhibition (GI): inactive
A549
  growth inhibition (GI): inactive
PANC-1
  growth inhibition (GI): inactive

## C[C@H]1[C@H](C)CC[C@]2(C(=O)O[C@@H]3O[C@H](CO)[C@@H](O)[C@H](O)[C@H]3O)CC[C@]3(C(=O)O)C(=CC[C@@H]4[C@@]5(C)CC[C@H](O[C@@H]6O[C@H](CO)[C@@H](O)[C@H](O)[C@H]6O)C(C)(C)[C@@H]5CC[C@]43C)[C@H]12
HL-60
  growth inhibition (GI): inactive
DNA topoisomerase 1
  IC50: > 250 µM
[1]
  IC50: > 250 µM
PC-3
  growth inhibition (GI): inactive
A549
  growth inhibition (GI): inactive
PANC-1
  growth inhibition (GI): inactive

## C[C@H]1[C@H](C)CC[C@]2(C(=O)O)CC[C@]3(C(=O)O)C(=CC[C@@H]4[C@@]5(C)CC[C@H](O[C@@H]6O[C@H](CO)[C@@H](O)[C@H](O)[C@H]6O)C(C)(C)[C@@H]5CC[C@]43C)[C@H]12
HL-60
  growth inhibition (GI): inactive
DNA topoisomerase 1
  IC50: > 250 µM
[1]
  IC50: > 250 µM
PC-3
  growth inhibition (GI): inactive
A549
  growth inhibition (GI): inactive
PANC-1
  growth inhibition (GI): inactive

## CC(C)=CCC[C@](C)(O[C@@H]1O[C@H](CO)[C@@H](O)[C@H](O)[C@H]1O)[C@H]1CC[C@]2(C)[C@@H]1[C@H](O)C[C@@H]1[C@@]3(C)CC[C@H](O[C@@H]4O[C@H](CO)[C@@H](O)[C@H](O)[C@H]4O)C(C)(C)[C@@H]3CC[C@]12C [GINSENOSIDE F2]
HL-60
  growth inhibition (GI): inactive
DNA topoisomerase 1
  IC50: > 250 µM
[1]
  IC50: > 250 µM
PC-3
  growth inhibition (GI): inactive
A549
  growth inhibition (GI): inactive
PANC-1
  growth inhibition (GI): inactive

## CC(C)=CCC[C@](C)(O[C@@H]1O[C@H](CO[C@@H]2OC[C@H](O)[C@H](O)[C@H]2O)[C@@H](O)[C@H](O)[C@H]1O)[C@H]1CC[C@]2(C)[C@@H]1[C@H](O)C[C@@H]1[C@@]3(C)CC[C@H](O)C(C)(C)[C@@H]3[C@@H](O)C[C@]12C [GINSENOSIDE F3]
HL-60
  growth inhibition (GI): inactive
DNA topoisomerase 1
  IC50: > 250 µM
[1]
  IC50: > 250 µM
PC-3
  growth inhibition (GI): inactive
A549
  growth inhibition (GI): inactive
PANC-1
  growth inhibition (GI): inactive

## CC(C)=CCC[C@](C)(O[C@@H]1O[C@H](CO[C@H]2O[C@H](CO)[C@@H](O)[C@@H]2O)[C@@H](O)[C@H](O)[C@H]1O)[C@H]1CC[C@]2(C)[C@@H]1[C@H](O)C[C@@H]1[C@@]3(C)CC[C@H](O)C(C)(C)[C@@H]3[C@@H](O)C[C@]12C [GINSENOSIDE F5]
HL-60
  growth inhibition (GI): inactive
DNA topoisomerase 1
  IC50: > 250 µM
[1]
  IC50: > 250 µM
PC-3
  growth inhibition (GI): inactive
A549
  growth inhibition (GI): inactive
PANC-1
  growth inhibition (GI): inactive

## C=C(C)[C@@H]1CC[C@]2(C)CC[C@]3(C)[C@H](CC[C@@H]4[C@@]5(C)CC[C@H](O)C(C)(C)[C@@H]5CC[C@]43C)[C@@H]12 [LUPEOL]
HL-60
  growth inhibition (GI): inactive
[1]
  IC50: > 250 µM
PC-3
  growth inhibition (GI): inactive
A549
  growth inhibition (GI): inactive
PANC-1
  growth inhibition (GI): inactive
